These results are taken from ChEMBL document CHEMBL1629592, “Real-time monitoring of human enterovirus (HEV)-infected cells and anti-HEV 3C protease potency by fluorescence resonance energy transfer” (Antimicrob Agents Chemother, 2009).

Holding throughout (type): functional, organism-based
Assay [1] concerns Enterovirus. Kind of assay: Antiviral activity against Human enterovirus CVB1 infected in human HeLa-G3CwtR cells after 36 to 48 hrs by FRET assay.
The test system of assay [2] is Enterovirus. As to the kind of experiment: Antiviral activity against Human enterovirus CVB4 infected in Vero cells after 4 to 7 days by plaque reduction assay.
Assay [3] concerns Enterovirus. As to the kind of experiment: Antiviral activity against Human enterovirus CVB2 infected in human HeLa cells after 2 to 4 days by formazan dye reduction assay.
Assay [4] relates to Enterovirus. As to the kind of experiment: Antiviral activity against Human enterovirus CVB2 infected in human HeLa-G3CwtR cells after 36 to 48 hrs by FRET assay.
Assay [5] has as its system Enterovirus. As to the kind of experiment: Antiviral activity against Human enterovirus CVB4 infected in human HeLa cells after 2 to 4 days by formazan dye reduction assay.
Assay [6] concerns Enterovirus. Kind of assay: Antiviral activity against Human enterovirus CVB1 infected in human HeLa cells after 2 to 4 days by formazan dye reduction assay.
Assay [7] relates to Enterovirus. As to the kind of experiment: Antiviral activity against Human enterovirus EV71 infected in human HeLa-G3CwtR cells after 36 to 48 hrs by FRET assay.
Assay [8] relates to Enterovirus. Kind of assay: Antiviral activity against Human enterovirus CVA16 infected in human HeLa-G3CwtR cells after 36 to 48 hrs by FRET assay.
In assay [9] the test system is Enterovirus. Kind of assay: Antiviral activity against Human enterovirus Echo9 infected in Vero cells after 4 to 7 days by plaque reduction assay.
The subject of assay [10] is Enterovirus. As to the kind of experiment: Antiviral activity against Human enterovirus Echo9 infected in human HeLa cells after 2 to 4 days by formazan dye reduction assay.
The subject of assay [11] is Enterovirus. Kind of assay: Antiviral activity against Human enterovirus CVB4 infected in human HeLa-G3CwtR cells after 36 to 48 hrs by FRET assay.
Assay [12] has as its system Enterovirus. Kind of assay: Antiviral activity against Human enterovirus CVA16 infected in Vero cells after 4 to 7 days by plaque reduction assay.
Assay [13] deals with Enterovirus. As to the kind of experiment: Antiviral activity against Human enterovirus CVA16 infected in human HeLa cells after 2 to 4 days by formazan dye reduction assay.
Assay [14] deals with Enterovirus. Kind of assay: Antiviral activity against Human enterovirus EV71 infected in human HeLa cells after 2 to 4 days by formazan dye reduction assay.
Assay [15] deals with Enterovirus. As to the kind of experiment: Antiviral activity against Human enterovirus CVB1 infected in Vero cells after 4 to 7 days by plaque reduction assay.
The test system of assay [16] is Enterovirus. As to the kind of experiment: Antiviral activity against Human enterovirus Echo9 infected in human HeLa-G3CwtR cells after 36 to 48 hrs by FRET assay.
For assay [17], the system named is Enterovirus. As to the kind of experiment: Antiviral activity against Human enterovirus CVB2 infected in Vero cells after 4 to 7 days by plaque reduction assay.
The test system of assay [18] is Enterovirus. Kind of assay: Antiviral activity against Human enterovirus EV71 infected in Vero cells after 4 to 7 days by plaque reduction assay.

As for `CCOC(=O)/C=C/[C@H](C[C@@H]1CCNC1=O)NC(=O)[C@@H](CC(=O)[C@@H](NC(=O)c1cc(C)on1)C(C)C)Cc1ccc(F)cc1` [RUPINTRIVIR], the EC50 in the assay with Enterovirus [1] was 1640 nM; in the assay on Enterovirus [2], 843 nM; in the assay with Enterovirus [3] it was 783 nM; with Enterovirus [4], 857 nM; with Enterovirus [5] it was 372 nM; in the assay on Enterovirus [6], 1250 nM. The EC50 in the assay with Enterovirus [7] was found to be 781 nM; with Enterovirus [8], 331 nM; in the assay on Enterovirus [9], 481 nM; in the assay with Enterovirus [10] it was 360 nM; with Enterovirus [11], 877 nM; in the assay on Enterovirus [12] it was 419 nM. The concentration for a half-maximal effect (EC50) worked out at 270 nM with Enterovirus [13]; 561 nM with Enterovirus [14]; 1720 nM in the assay with Enterovirus [15]; 434 nM in the assay on Enterovirus [16]; 982 nM in the assay with Enterovirus [17]; 791 nM in the assay with Enterovirus [18].
